Experimental data from publication PMC8078834 (FASEB journal : official publication of the Federation of …, 2021).

Target: myeloperoxidase (MPO) (Homo sapiens, UniProt P05164)
Assay: microscale thermophoresis
Format: binding

Chain of myeloperoxidase (MPO) (P05164 165-273): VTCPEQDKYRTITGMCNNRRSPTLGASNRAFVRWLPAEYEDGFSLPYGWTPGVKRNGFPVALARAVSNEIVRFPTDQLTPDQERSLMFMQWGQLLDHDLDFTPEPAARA
Chain of myeloperoxidase (MPO) (P05164 279-745): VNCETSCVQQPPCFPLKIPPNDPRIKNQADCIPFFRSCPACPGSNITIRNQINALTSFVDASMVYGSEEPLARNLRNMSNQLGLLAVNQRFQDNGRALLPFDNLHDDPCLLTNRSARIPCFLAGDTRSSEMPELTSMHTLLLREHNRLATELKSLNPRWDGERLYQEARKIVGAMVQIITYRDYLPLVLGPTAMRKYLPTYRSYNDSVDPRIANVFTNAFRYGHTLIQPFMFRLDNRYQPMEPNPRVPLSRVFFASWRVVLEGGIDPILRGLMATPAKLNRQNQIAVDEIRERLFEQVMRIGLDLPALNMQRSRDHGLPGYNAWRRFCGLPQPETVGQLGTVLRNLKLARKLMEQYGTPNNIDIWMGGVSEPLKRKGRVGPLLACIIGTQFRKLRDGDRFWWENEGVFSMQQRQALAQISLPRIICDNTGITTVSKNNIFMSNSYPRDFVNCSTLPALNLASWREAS

`c1ccc2[nH]ccc2c1` [indole, 1H-indole] was tested, and the Kd was 272 ± 77.4 µM.
